How the values were obtained:
[1] = biological target: T1, PKCepsilon (Homo sapiens, UniProt Q02156); assay: Antibody competitive binding assay with fluorescent antibody (FIG. 4); conditions: PRE at 20× concentration
T1 construct: purchased
T1 sequence (Q02156 1-737): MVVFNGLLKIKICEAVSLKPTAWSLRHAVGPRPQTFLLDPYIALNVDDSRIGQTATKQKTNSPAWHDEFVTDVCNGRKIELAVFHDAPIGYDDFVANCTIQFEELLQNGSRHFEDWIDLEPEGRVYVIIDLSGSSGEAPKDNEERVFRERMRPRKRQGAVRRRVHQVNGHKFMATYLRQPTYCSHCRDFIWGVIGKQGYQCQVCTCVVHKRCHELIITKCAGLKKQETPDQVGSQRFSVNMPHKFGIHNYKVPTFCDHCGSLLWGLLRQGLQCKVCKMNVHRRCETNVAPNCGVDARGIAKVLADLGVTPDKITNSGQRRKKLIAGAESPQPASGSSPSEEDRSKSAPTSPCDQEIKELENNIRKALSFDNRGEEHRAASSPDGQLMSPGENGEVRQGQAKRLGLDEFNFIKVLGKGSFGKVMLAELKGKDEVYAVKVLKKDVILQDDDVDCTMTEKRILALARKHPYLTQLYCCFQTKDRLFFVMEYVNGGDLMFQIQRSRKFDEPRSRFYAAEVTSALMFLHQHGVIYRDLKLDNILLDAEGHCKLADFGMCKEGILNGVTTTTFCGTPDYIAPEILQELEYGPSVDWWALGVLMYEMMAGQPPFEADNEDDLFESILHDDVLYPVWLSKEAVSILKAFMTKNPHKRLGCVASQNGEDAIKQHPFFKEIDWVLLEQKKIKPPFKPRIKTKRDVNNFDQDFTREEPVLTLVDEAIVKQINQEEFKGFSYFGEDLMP
Description: (§1) FIG. 4 presents data from conventional antibody competitive binding assays using PKC-α versus a representative battery of PKC isoforms (commercially available). PKC isoforms representing the three subgroups of the PKC family were assessed (classical PKCs=PKCalpha; novel PKCs=PKCdelta and epsilon; atypical PKCs=PKCzeta). Controls received the appropriate PKC isoform fluorescent antibody. Treated samples received the PRE sequence from PhGα1 (20× concentration) and the same PKC antibody. Specific affinity to PKC-α in the treated sample by the PRE will therefore decrease the amount of binding by the fluorescent antibody, represented by a decrease in fluorescent intensity in the treated sample.

[2] = biological target: PKC-α (Homo sapiens, UniProt P17252); assay: as above; conditions: PRE at 20× concentration
Description: as §1

[3] = biological target: PKC-βI (Homo sapiens, UniProt P05771); assay: In vitro competition with anti-PKC-βI antibody, Protocol B, IMR-32 cells; format: binding; parameters: PRE 3 and PRE 4 in IMR-32 Neuroblastoma Cells: Protocol B; endogenous in cells; host or cells: IMR-32; conditions: for inhibition at 0.1 mg / remaining activity at 0.1 mg / Band Intensity / inhibition at 0.2 mg / remaining activity at 0.2 mg / inhibition at 0.3 mg / remaining activity at 0.3 mg: PKC-βI; for inhibition at 0.1 mg / inhibition at 0.2 mg / inhibition at 0.3 mg: Table 9; for remaining activity at 0.1 mg / remaining activity at 0.2 mg / remaining activity at 0.3 mg: Table 9, read-out: Relative Intensity (%); for Band Intensity: control band intensity 170.5, Table 9
Description: (§2) The ability of the peptides PRE 2 and PRE 3 (see Table 3) to interfere with the binding of a PKC-α-specific polyclonal antibody (Santa Cruz Biotechnology, Inc.) to PKC-α was determined using a modified version of the protocol outlined above in which the test peptide was added directly to the cell extract prior to electrophoresis at a concentration of either 5× or 15× the concentration of the protein applied to each well of the gel for the Western blots (20 μg).
Peptides PRE 3 and PRE 4 (see Table 3) were tested for their ability to interfere with the binding of isoform-specific polyclonal antibodies (Santa Cruz Biotechnology, Inc.) to PKC-α, PKC-βI or PKC-βII using the general protocol described in Example 3.

[4] = tested on: PKC-ε; assay: In vitro competition with anti-PKC-ε antibody, Protocol B, IMR-32 cells; format: binding, human
Description: as §2
Peptides PRE 2, PRE 3 and PRE 4 (see Table 3) were tested for their ability to interfere with the binding of isoform-specific polyclonal antibodies (Santa Cruz Biotechnology, Inc.) to PKC-ε using the general protocol described in Example 3. Two bands, representing alternate splicing variants of PKC-ε, were identified on the Western blot using this anti-PKC-ε antibody.

[5] = tested on: PKC-β; assay: In vitro competition with anti-PKC-β antibody, Protocol A, IMR-32 cells; format: binding, human; conditions: for Band Intensity / Inhibition (%) / Relative Intensity (%): PKC-β, IMR-32, Table 6
Description: Cell lysates from either IMR-32 (human neuroblastoma) cells or C6Cx43 cells (rat glioma transfected cells overexpressing connexin 43) were obtained using standard protocols and the proteins of the lysate were separated by SDS PAGE electrophoresis and electrotransferred onto a nitrocellulose membrane. The membrane was incubated for 30 minutes in blocking buffer (TBST) containing the test peptide at either 5× or 20× the concentrations of the primary antibody. A primary polyclonal antibody specific for PKC-α (Santa Cruz Biotechnology, Inc., CA) was then added (15 μg/ml) and the membrane incubated for a further 45 minutes. Finally, the primary antibody was detected with a secondary antibody conjugated to alkaline phosphatase using standard procedures. The intensity of the band corresponding to PKC-α was assessed by scanning and densitometry using the Gel-Pro software (Media Cybernetics) to obtain relative band intensities (average of 3 replicas). Control assays were conducted as described above except that blocking buffer without peptide was used.
Peptides PRE 1, PRE 2 and PRE 3 (see Table 3) were tested for their ability to interfere with the binding of a PKC-β-specific polyclonal antibody (Santa Cruz Biotechnology, Inc.) to PKC-β using the general protocol described in Example 1. […] It is worth noting in this regard that PKC-α and PKC-β belong to the same sub-group of PKCs (cPKCs).

Chain of PKC-βI (P05771 whole entry): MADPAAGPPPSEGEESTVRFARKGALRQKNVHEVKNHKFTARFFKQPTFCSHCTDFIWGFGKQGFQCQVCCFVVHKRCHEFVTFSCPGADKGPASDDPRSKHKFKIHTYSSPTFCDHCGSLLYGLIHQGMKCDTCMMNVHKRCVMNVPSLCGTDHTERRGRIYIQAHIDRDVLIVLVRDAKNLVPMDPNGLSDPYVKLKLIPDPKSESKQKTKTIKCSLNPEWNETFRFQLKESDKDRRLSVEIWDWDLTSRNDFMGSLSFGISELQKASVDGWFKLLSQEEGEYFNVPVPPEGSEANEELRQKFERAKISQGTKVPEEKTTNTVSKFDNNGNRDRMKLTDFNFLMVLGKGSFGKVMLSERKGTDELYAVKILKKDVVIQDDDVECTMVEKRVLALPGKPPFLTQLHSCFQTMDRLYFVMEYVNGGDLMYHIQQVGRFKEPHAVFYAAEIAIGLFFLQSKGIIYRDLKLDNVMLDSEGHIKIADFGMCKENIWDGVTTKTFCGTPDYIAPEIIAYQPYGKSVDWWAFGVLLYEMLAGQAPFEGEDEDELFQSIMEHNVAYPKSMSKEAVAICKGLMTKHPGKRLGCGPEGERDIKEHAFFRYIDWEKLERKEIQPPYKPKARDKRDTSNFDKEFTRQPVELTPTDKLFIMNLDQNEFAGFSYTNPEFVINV

Ac-KDAQNLIGISI-NH2 [PRE 4, Ac-KDAQNLIGISI-NH2]
effect on fluorescent antibody binding to PKCepsilon [1]: not with PKCdelta, epsilon or zeta | effect on fluorescent antibody binding to PKC-α [2]: decrease in antibody binding | effect on antibody binding to PKC-βI [3]: some cross-reactivity | inhibition at 0.1 mg ([3]; 100 μg): 34% | remaining activity at 0.1 mg ([3]; 100 μg): 66% | Band Intensity ([3]; 100 μg): 112.5 | inhibition at 0.2 mg ([3]; 200 μg): 100% | remaining activity at 0.2 mg ([3]; 200 μg): 0% | Band Intensity ([3]; 200 μg): 0.0 | inhibition at 0.3 mg ([3]; 300 μg): 100% | remaining activity at 0.3 mg ([3]; 300 μg): 0% | Band Intensity ([3]; 300 μg): 0.0 | effect on antibody binding to PKC-ε [4]: some cross-reactivity with PKC-ε | Band Intensity ([4]; 20 μg, PKC-ε Band 1, Table 10): 184.38 | Inhibition (%) ([4]; 20 μg, PKC-ε Band 1, Table 10): 42.9% | Relative Intensity (%) ([4]; 20 μg, PKC-ε Band 1, Table 10): 57.1% | Band Intensity ([4]; 20 μg, PKC-ε Band 2, Table 10): 152.66 | Inhibition (%) ([4]; 20 μg, PKC-ε Band 2, Table 10): 46.6% | Relative Intensity (%) ([4]; 20 μg, PKC-ε Band 2, Table 10): 53.33% | Band Intensity ([4]; 50 μg, PKC-ε Band 1, Table 10): 0.0 | Inhibition (%) ([4]; 50 μg, PKC-ε Band 1, Table 10): 100.0% | Relative Intensity (%) ([4]; 50 μg, PKC-ε Band 1, Table 10): 0.0% | Band Intensity ([4]; 50 μg, PKC-ε Band 2, Table 10): 0.0 | Inhibition (%) ([4]; 50 μg, PKC-ε Band 2, Table 10): 100.0% | Relative Intensity (%) ([4]; 50 μg, PKC-ε Band 2, Table 10): 0.0% | Band Intensity ([4]; 100 μg, PKC-ε Band 1, Table 10): 0.0 | Inhibition (%) ([4]; 100 μg, PKC-ε Band 1, Table 10): 100.0% | Relative Intensity (%) ([4]; 100 μg, PKC-ε Band 1, Table 10): 0.0% | Band Intensity ([4]; 100 μg, PKC-ε Band 2, Table 10): 0.0 | Inhibition (%) ([4]; 100 μg, PKC-ε Band 2, Table 10): 100.0% | Relative Intensity (%) ([4]; 100 μg, PKC-ε Band 2, Table 10): 0.0%

RRKKGGKDFVVKR [PRE 1]
effect on antibody binding to PKC-β [5]: some cross reactivity | Band Intensity ([5]; 75 μg): 0.825 | Inhibition (%) ([5]; 75 μg): 28.9% | Relative Intensity (%) ([5]; 75 μg): 71.1% | Band Intensity ([5]; 300 μg): 0.528 | Inhibition (%) ([5]; 300 μg): 54.5% | Relative Intensity (%) ([5]; 300 μg): 45.5%

Ac-AKGIQEVKGGDAQNLIGISI-NH2 [PRE 3]
effect on antibody binding to PKC-β [5]: did not show an effect on antibody binding to PKC-β | Band Intensity ([5]; 75 μg): 1.900 | Inhibition (%) ([5]; 75 μg): 0.0% | Relative Intensity (%) ([5]; 75 μg): 102.4% | Band Intensity ([5]; 300 μg): 1.900 | Inhibition (%) ([5]; 300 μg): 0.0% | Relative Intensity (%) ([5]; 300 μg): 102.4% | Band Intensity ([5]; 600 μg): 1.847 | Inhibition (%) ([5]; 600 μg): 0.0% | Relative Intensity (%) ([5]; 600 μg): 99.6% | inhibition at 0.1 mg ([3]; 100 μg): 100% | remaining activity at 0.1 mg ([3]; 100 μg): 0% | Band Intensity ([3]; 100 μg): 0.0 | inhibition at 0.2 mg ([3]; 200 μg): 100% | remaining activity at 0.2 mg ([3]; 200 μg): 0% | Band Intensity ([3]; 200 μg): 0.0 | inhibition at 0.3 mg ([3]; 300 μg): 100% | remaining activity at 0.3 mg ([3]; 300 μg): 0% | Band Intensity ([3]; 300 μg): 0.0 | Band Intensity ([4]; 20 μg, PKC-ε Band 1, Table 10): 5.12 | Inhibition (%) ([4]; 20 μg, PKC-ε Band 1, Table 10): 99.0% | Relative Intensity (%) ([4]; 20 μg, PKC-ε Band 1, Table 10): 0.12% | Band Intensity ([4]; 20 μg, PKC-ε Band 2, Table 10): 0.0 | Inhibition (%) ([4]; 20 μg, PKC-ε Band 2, Table 10): 100.0% | Relative Intensity (%) ([4]; 20 μg, PKC-ε Band 2, Table 10): 0.0% | Band Intensity ([4]; 50 μg, PKC-ε Band 1, Table 10): 0.0 | Inhibition (%) ([4]; 50 μg, PKC-ε Band 1, Table 10): 100.0% | Relative Intensity (%) ([4]; 50 μg, PKC-ε Band 1, Table 10): 0.0% | Band Intensity ([4]; 50 μg, PKC-ε Band 2, Table 10): 0.0 | Inhibition (%) ([4]; 50 μg, PKC-ε Band 2, Table 10): 100.0% | Relative Intensity (%) ([4]; 50 μg, PKC-ε Band 2, Table 10): 0.0% | Band Intensity ([4]; 100 μg, PKC-ε Band 1, Table 10): 0.0 | Inhibition (%) ([4]; 100 μg, PKC-ε Band 1, Table 10): 100.0% | Relative Intensity (%) ([4]; 100 μg, PKC-ε Band 1, Table 10): 0.0% | Band Intensity ([4]; 100 μg, PKC-ε Band 2, Table 10): 0.0 | Inhibition (%) ([4]; 100 μg, PKC-ε Band 2, Table 10): 100.0% | Relative Intensity (%) ([4]; 100 μg, PKC-ε Band 2, Table 10): 0.0%

From patent publication US20100041597A1, “PEPTIDES TARGETED TO PROTEIN KINASE C ISOFORMS AND USES THEREOF” (priority 2005, published 2010)
